Here are results for 16 compounds from patent US6369261B1, “Compounds having activity as inhibitors of cytochrome P450RAI” (Allergan Sales, Inc., priority 2000, dated 2002).

Series [1] relates to SKH1-hrBR or hairless mouse. Briefly: topical skin irritation test in hairless mice. The conditions noted are these: topical in acetone, once daily days 1 through 5, mean ±SD, range 0-21. In kind it is in vivo. The source says: Mice were housed individually throughout the dosing period.
Doses are disclosed as nmol/25 g.
The grading scale used is as follows:
Values can range from 0-9.
Values can range from 0-8.

Another series addresses T1, RARβ (Homo sapiens, UniProt P10826).
T1 sequence (P10826 1-455): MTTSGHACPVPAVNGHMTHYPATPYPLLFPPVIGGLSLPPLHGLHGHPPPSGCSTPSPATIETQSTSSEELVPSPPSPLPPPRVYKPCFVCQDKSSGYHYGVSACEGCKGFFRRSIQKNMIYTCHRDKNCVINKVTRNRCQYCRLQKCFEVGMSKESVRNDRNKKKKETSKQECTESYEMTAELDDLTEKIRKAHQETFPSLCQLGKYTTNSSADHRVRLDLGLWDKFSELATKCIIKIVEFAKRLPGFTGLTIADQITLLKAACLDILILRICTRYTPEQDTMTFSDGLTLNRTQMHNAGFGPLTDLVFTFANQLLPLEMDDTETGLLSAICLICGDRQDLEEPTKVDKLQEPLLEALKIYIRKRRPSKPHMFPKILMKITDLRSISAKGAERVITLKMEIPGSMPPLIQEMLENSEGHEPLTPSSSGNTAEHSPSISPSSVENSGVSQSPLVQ
The series is described as follows: ligand binding assay. To be noted: last line of the stacked cell, read-out: RAR Kd β. The text has this:
(§1) Assays described below measure the ability of a compound to bind to, and/or activate various retinoid receptor subtypes. When in these assays a compound binds to a given receptor subtype and activates the transcription of a reporter gene through that subtype, then the compound is considered an agonist of that receptor subtype. […] In the below described assays the ability of the compounds to bind to RARα, RARβ, RARγ, RXRα, RXRβ and RXRγ receptors, and the ability or inability of the compounds to activate transcription of a reporter gene through these receptor subtypes can be tested.
(§2) The results obtained in this assay are expressed in EC50 numbers, as they are also in the chimeric receptor transactivation assay. The results of ligand binding assay are expressed in Kd numbers.

The target of another series is T2, RARγ (Homo sapiens, UniProt P13631).
T2 sequence (P13631 1-454): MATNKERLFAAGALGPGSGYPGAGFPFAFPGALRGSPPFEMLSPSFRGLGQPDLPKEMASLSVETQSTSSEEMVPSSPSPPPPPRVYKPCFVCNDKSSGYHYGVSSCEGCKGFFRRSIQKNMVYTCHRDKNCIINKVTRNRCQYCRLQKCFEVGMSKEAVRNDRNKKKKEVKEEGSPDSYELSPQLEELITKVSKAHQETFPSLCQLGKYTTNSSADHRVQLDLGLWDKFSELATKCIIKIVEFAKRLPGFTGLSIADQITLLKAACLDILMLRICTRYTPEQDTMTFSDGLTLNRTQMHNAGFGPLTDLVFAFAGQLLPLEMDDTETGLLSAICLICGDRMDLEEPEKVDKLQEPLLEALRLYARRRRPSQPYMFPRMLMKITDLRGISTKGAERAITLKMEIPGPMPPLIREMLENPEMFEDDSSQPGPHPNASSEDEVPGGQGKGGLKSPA
Briefly: ligand binding assay. The conditions noted are these: last line of the stacked cell, read-out: RAR Kd γ.
Text: as §1, §2

Some results are limits rather than exact numbers.

As for `CC1(C)CCC(=O)c2ccc(C#Cc3ccc(CC(=O)O)cc3)cc21` [Compound 5, 4-[(8,8-Dimethyl-5-oxo-5,6,7,8-tetrahydro-naphthalene-2-yl-ethynyl)-phenyl]-acetic acid], the “Cutaneous Toxicity Score (Blackjack Score)” value (“Cutaneous Toxicity Score” below) in series [1] (100 nmole (nmol/25 g)) turned out to be 0; in series [1] (1000 nmole (nmol/25 g)) it was 6 ± 3.
Turning to `CN(C1CC1)C1CCC(C)(C)c2cc(C#Cc3ccc(CC(=O)O)cc3)ccc21` (stereo not shown) [Compound 8, 4-[(5-(Cyclopropyl-methyl-amino)-8,8-dimethyl-5,6,7,8-tetrahydro-naphthalene-2-yl-ethynyl)-phenyl]-acetic acid], the “Cutaneous Toxicity Score” value in series [1] (100 nmole (nmol/25 g)) is listed as 5 ± 2; in series [1] (300 nmole (nmol/25 g)), 8 ± 3; in series [1] (1000 nmole (nmol/25 g)), 12 ± 1.
For `CC1(C)CCC(=O)c2ccc(C#Cc3ccc(CC(=O)O)c(F)c3)cc21` [Compound 15, [2-Fluoro-4-(8,8-dimethyl-5-oxo-5,6,7,8-tetrahydro-naphthalene-2-yl-ethynyl)phenyl]-acetic acid], the “Cutaneous Toxicity Score” value in series [1] (100 nmole (nmol/25 g)) stood at 1 ± 1; in series [1] (1000 nmole (nmol/25 g)) it was 5 ± 2.
Regarding `CN(C1CC1)C1CCC(C)(C)c2cc(C#Cc3ccc(CC(=O)O)c(F)c3)ccc21` (stereo not shown) [Compound 18, [4-(5-(Cyclopropyl-methyl-amino)-8,8-dimethyl-5,6,7,8-tetrahydro-naphthalene-2-yl-ethynyl)-2-fluoro-phenyl]-acetic acid], the figures for the “Cutaneous Toxicity Score” value in series [1] (100 nmole (nmol/25 g)), in series [1] (300 nmole (nmol/25 g)) and in series [1] (1000 nmole (nmol/25 g)) were 0 ± 0, 5 ± 2 and 10 ± 2, respectively.
With `CC1(C)CN(C2CC2)Cc2ccc(C#Cc3ccc(CC(=O)O)c(F)c3)cc21` [Compound 22, [4-(2-Cyclopropyl-4,4-dimethyl-1,2,3,4-tetrahydro-isoquinolin-6-yl-ethynyl)-2-fluoro-phenyl]-acetic acid], the “Cutaneous Toxicity Score” value is recorded as 0 ± 0 in series [1] (100 nmole (nmol/25 g)), 0 ± 0 in series [1] (300 nmole (nmol/25 g)) and 1 ± 1 in series [1] (1000 nmole (nmol/25 g)).
As to `CC1(C)CC(C)(C)c2cc(C#Cc3ccc(CC(=O)O)cc3)cc(C3CC3)c2O1` [Compound 36, [4-(8-Cyclopropyl-2,2,4,4-tetramethyl-chroman-6-yl-ethynyl)phenyl]acetic acid], the “Cutaneous Toxicity Score” value is reported as 1 ± 1 in series [1] (100 nmole (nmol/25 g)) and 11 ± 0 in series [1] (1000 nmole (nmol/25 g)).
Take `CC1(C)CC(C)(C)c2cc(C#Cc3ccc(CC(=O)O)c(F)c3)cc(C3CC3)c2O1` [Compound 38, [4-(8-Cyclopropyl-2,2,4,4-tetramethyl-chroman-6-yl-ethynyl)-2-fluorophenyl] acetic acid]: the “Cutaneous Toxicity Score” value in series [1] (100 nmole (nmol/25 g)) is on record as 1 ± 1; in series [1] (1000 nmole (nmol/25 g)) it was 10 ± 1.
By Kd is commonly meant a measure of binding affinity in units of concentration. On to `CC1(C)CC(C)(C)c2cc(C(=O)Oc3ccc(CC(=O)O)cc3)ccc2O1` [Compound 46, 2,2,4,4-Tetramethyl-chroman-6-carboxylic acid 4-(carboxymethyl)phenyl ester], for which the Kd on RARβ and at RARγ was more than 10 µM throughout.
Take `CC1(C)CC2(CC2)Oc2c(C3CC3)cc(C#Cc3ccc(CC(=O)O)cc3)cc21` [Compound 48, Benzeneacetic acid, 4-[(8-cyclopropyl-3,4-dihydro-4,4-dimethylspiro[2H-1-benzopyran-2,1′-cyclopropane]-6-yl)ethynyl]-]: the “Cutaneous Toxicity Score” value in series [1] (100 nmole (nmol/25 g)) turned out to be 1 ± 1; in series [1] (300 nmole (nmol/25 g)), 3 ± 1; in series [1] (1000 nmole (nmol/25 g)) it was 7 ± 2.
With `CC1(C)CC2(CC2)Oc2c(C3CC3)cc(C#Cc3ccc(CC(=O)O)c(F)c3)cc21` [Compound 50], the “Cutaneous Toxicity Score” value in series [1] (100 nmole (nmol/25 g)) worked out at 1 ± 0; in series [1] (300 nmole (nmol/25 g)), 3 ± 2; in series [1] (1000 nmole (nmol/25 g)), 8 ± 2.
Regarding `CC1(C)CC2(CC2)Oc2c(C3CC3)cc(C(=O)Oc3ccc(CC(=O)O)cc3)cc21` [Compound 58, Spiro[2H-1-benzopyran-2,1′-cyclopropane]-6-carboxylic acid, 8-cyclopropyl-3,4-dihydro-4,4-dimethyl-, 4-(carboxymethyl)phenyl ester], the “Cutaneous Toxicity Score” value in series [1] (100 nmole (nmol/25 g)), in series [1] (300 nmole (nmol/25 g)) and in series [1] (1000 nmole (nmol/25 g)) was 0 ± 0 each time.
Turning to `CCCN(CCC)C1(c2ccc(C#Cc3ccc(C(=O)O)cc3)cc2)CC1` [Compound 110, 4-[4-(1-Dipropylamino-cyclopropyl)-phenylethynyl]-benzoic acid], on RARγ, the dissociation constant Kd is more than 10 µM.
With `O=C(O)c1ccc(C#Cc2ccc(C3(N(Cc4ccccc4)Cc4ccccc4)CC3)cc2)cc1` [Compound 114, 4-[4-(1-Dibenzylamino-cyclopropyl)-phenylethynyl]-benzoic acid], the Kd on RARβ is more than 10 µM.
Still for that read-out and setting: the same measure for `Cc1cc(C#Cc2ccc(CC(=O)O)cc2)ccc1Cn1ccnc1` [Compound 121, [4-(4-Imidazol-1-yl-methyl-3-methyl-phenylethynyl)-phenyl]-acetic acid]: more than 100 µM.
Consider `CCN(Cc1ccc(C#Cc2ccc(CC(=O)O)cc2)cc1C)C1CC1` [Compound 131, (4-{4-[(Cyclopropyl-ethyl-amino)-methyl]-3-methyl-phenylethynyl}-phenyl)-acetic acid], for which the entries for the “Cutaneous Toxicity Score” value in series [1] (100 nmole (nmol/25 g)), in series [1] (300 nmole (nmol/25 g)) and in series [1] (1000 nmole (nmol/25 g)) were 1 ± 1, 0 ± 1 and 1 ± 1, respectively.
Consider `CC1(C)CCC(n2ccnc2)c2ccc(C#Cc3ccc(CC(=O)O)cc3)cc21` (stereo not shown) [Compound 137, [4-(5-Imidazol-1-yl-8,8-dimethyl-5,6,7,8-tetrahydro-naphthalen-2-yl-ethynyl)-phenyl]-acetic acid], for which the “Cutaneous Toxicity Score” value in series [1] (100 nmole (nmol/25 g)) is reported as 1 ± 1; in series [1] (300 nmole (nmol/25 g)), 1 ± 1; in series [1] (1000 nmole (nmol/25 g)), 5 ± 2.
